Measured values: ChEMBL document CHEMBL1177740, “Steroidal saponins from two species of Dracaena” (J Nat Prod, 2010)

Experiments:
HT-29 = experiment: Cytotoxicity against human HT-29 cells by MTT assay; type: functional, cell-based
HCT-116 = experiment: Cytotoxicity against human HCT116 cells by MTT assay; type: functional, cell-based

SMILES	IC50 (HT-29) [µM]	IC50 (HCT-116) [µM]
C[C@@H]1CC[C@]2(OC1)O[C@H]1C[C@H]3[C@@H]4CC=C5C[C@@H](O[C@@H]6O[C@H](CO)[C@@H](O)[C@H](O[C@@H]7O[C@@H](C)[C@H](O)[C@@H](O)[C@H]7O)[C@H]6O[C@@H]6O[C@@H](C)[C@H](O)[C@@H](O)[C@H]6O)CC[C@]5(C)[C@H]4CC[C@]3(C)[C@@]1(O)[C@@H]2C	1.67	2.04
C=C1CO[C@@]2(O[C@H]3C[C@H]4[C@@H]5CC=C6C[C@@H](O)C[C@@H](O[C@@H]7OC[C@H](O)[C@H](O[C@@H]8OC[C@@H](O)[C@H](O)[C@H]8O[C@@H]8O[C@@H](C)[C@H](O)[C@@H](O)[C@H]8O)[C@H]7O)[C@]6(C)[C@H]5CC[C@]4(C)[C@H]3[C@@H]2C)[C@@H](O)[C@H]1O[C@@H]1OC[C@H](O)[C@H](O)[C@H]1O	29.5	29
CC(=O)OC[C@H]1O[C@@H](O[C@H]2CC[C@@]3(C)C(=CC[C@@H]4[C@@H]3CC[C@@]3(C)[C@H]4C[C@@H]4O[C@@]5(CC[C@@H](C)CO5)[C@@H](C)[C@@]43O)C2)[C@H](O[C@@H]2O[C@@H](C)[C@H](O)[C@@H](O)[C@H]2O)[C@@H](O[C@@H]2O[C@@H](C)[C@H](O)[C@@H](O)[C@H]2O)[C@@H]1O [ARBOREASAPONIN A]	8.54	7.6
C[C@@H]1O[C@@H](O[C@H]2[C@H](O[C@H]3CC[C@@]4(C)C(=CC[C@@H]5[C@@H]4CC[C@@]4(C)[C@H]5C[C@@H]5O[C@@]6(C[C@@H](O)[C@@H](C)CO6)[C@@H](C)[C@@]54O)C3)O[C@H](CO)[C@@H](O)[C@@H]2O[C@@H]2O[C@@H](C)[C@H](O)[C@@H](O)[C@H]2O)[C@H](O)[C@H](O)[C@H]1O [ARBOREASAPONIN B]	100	100
C=C1CO[C@]2(O[C@H]3C[C@H]4[C@@H]5CC=C6C[C@@H](O)C[C@@H](O[C@@H]7O[C@H](C)[C@H](O)[C@H](O[C@@H]8O[C@@H](C)[C@H](O)[C@@H](O)[C@H]8O)[C@H]7O[C@@H]7OC[C@@H](O)[C@H](O)[C@H]7O)[C@]6(C)[C@H]5CC[C@]4(C)[C@H]3[C@@H]2C)[C@@H](O)[C@H]1O[C@@H]1OC[C@H](O)[C@H](O)[C@H]1O [DEISTELIANOSIDE B]	70.7	21.2
C[C@@H]1CC[C@@]2(OC1)O[C@H]1C[C@H]3[C@@H]4CC=C5C[C@@H](O[C@@H]6O[C@H](CO)[C@@H](O)[C@H](O[C@@H]7O[C@@H](C)[C@H](O)[C@@H](O)[C@H]7O)[C@H]6O)CC[C@]5(C)[C@H]4CC[C@]3(C)[C@@]1(O)[C@@H]2C [MANIOSIDE A]	56.2	43
CC(=O)O[C@H]1C(=O)[C@@]2(C)[C@H]([C@H](OC(=O)c3ccccc3)[C@]3(O)C[C@H](OC(=O)[C@H](O)[C@@H](NC(=O)c4ccccc4)c4ccccc4)C(C)=C1C3(C)C)[C@]1(OC(C)=O)CO[C@@H]1C[C@@H]2O [PACLITAXEL]	0.0014	0.00321
